The test system of one assay is ZR-75-1 cells. In words: Cell cycle distribution, apoptosis and necrosis by flow cytometry, ZR-75-1. Format: cell-based, human. The settings on record: 5 μM; for induction of necrosis: detectable at 72 h, more prominent at 96 h. The procedure: FIGS. 3A-D. MUC1/CQC peptide induces S phase arrest and necrosis. ZR-75-1 (FIGS. 3A-B) and MCF-7 (FIGS. 3C-D) cells were treated with 5 μM MUC1/CQC or MUC1/AQA for 3 and 4 d. Cells were fixed and analyzed for cell cycle distribution by flow cytometry (FIGS. 3A and 3C). The percentage of cells in G1, S and G2/M phases is included in the panels. Cells were also stained with propidium iodide and analyzed by flow cytometry for necrosis (FIGS. 3B and 3D). The percentage of necrotic cells is included in the panels.
Cells were harvested, washed with PBS, fixed with 80% ethanol, and incubated in PBS containing 40 μg/ml RNAse and 40 μg/ml propidium iodide for 30 min at 37° C. Cell cycle distribution was determined by flow cytometry. Sub-G1 DNA content was assessed by staining ethanol-fixed and citrate buffer-permeabilized cells with propidium iodide and monitoring by flow cytometry as described (Yin et al., 2007). For assessment of necrosis, cells were incubated with 1 μg/ml propidium iodide/PBS for 5 min at room temperature and then monitored by flow cytometry as described (Yin et al., 2007).
To determine whether the MUC1/CQC peptide affects growth, ZR-75-1 cells were treated with 5 μM MUC1/CQC for 72 h and monitored for cell cycle distribution. […] These findings indicate that the MUC1/CQC peptide inhibits growth and induces necrosis of human breast cancer cells.

In assay [1] the target is T1, complexes of GFP-MUC1-CD and Flag-MUC1-CD (Homo sapiens, UniProt P15941).
T1 construct: expressed in transfected cells; host or cells: 293 cells
T1 sequence (P15941 1184-1255 limits assumed): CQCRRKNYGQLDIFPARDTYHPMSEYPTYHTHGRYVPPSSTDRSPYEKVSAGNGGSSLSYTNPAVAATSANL
In words: Coprecipitation of GFP-MUC1-CD and Flag-MUC1-CD in transfected 293 cells. In kind it is cell-based. The settings on record: 5 μM peptide for 3 d. The procedure: FIGS. 1A-D. MUC1/CQC peptide blocks MUC1 oligomerization. (FIG. 1A) Schematic representation of the MUC1-C subunit and the 72-amino acid sequence of MUC1-CD (SEQ ID NO: 1) are shown. The N-terminal 15 amino acids (shaded sequence; SEQ ID NO: 3) MUC1/CQC (SEQ ID NO: 63) and mutated MUC1/AQA (SEQ ID NO: 60) peptides were synthesized with the poly-dArg transduction domain. (FIG. 1B) His-MUC1-CD (1.4 mg/ml) was immobilized on a sensor chip in a BIAcore. MUC1/CQC was injected over the chip at 10 μM. Raw binding data were analyzed by BIAevaluation software version 3.0 and fit to a 1:1 Languir binding model. (FIG. 1C) Purified His-MUC1-CD (1.5 mg/ml) was incubated with PBS, 200 μM MUC1/CQC or 200 μM MUC1/AQA for 1 h at room temperature. The proteins were separated in a non-reducing SDS-polyacrylamide gel and analyzed by immunoblotting with anti-MUC1-C. […]
Whole cell and nuclear lysates were prepared as described (Leng et al., 2007). […] Immunoprecitates and soluble proteins were analyzed by immunoblotting with anti-His (Cell Signaling Technology, Danvers, Mass.), anti-GFP (Millipore, Danvers, Mass.), anti-Flag, anti-MUC1-C (Abl; NeoMarkers, Fremont, Calif.), anti-lamin B (EMD, La Jolla, Calif.) or anti-β-actin (Sigma). Reactivity was detected with horseradish peroxidase-conjugated second antibodies and chemiluminescence. […]

2 compounds from patent US9546201B2, “MUC-1 cytoplasmic domain peptides as inhibitors of cancer” (DANA-FARBER CANCER INSTITUTE, INC., priority 2008, dated 2017) can be followed below.

Where a SMILES comes first, the peptide text is derived from it. Where no end group is shown, it is not given here. [ ]: non-standard residue; d: D form.

On to `CC[C@H](C)[C@H](NC(=O)[C@H](CC(=O)O)NC(=O)[C@H](CC(C)C)NC(=O)[C@H](CCC(N)=O)NC(=O)CNC(=O)[C@H](Cc1ccc(O)cc1)NC(=O)[C@H](CC(N)=O)NC(=O)[C@H](CCCCN)NC(=O)[C@H](CCCNC(=N)N)NC(=O)[C@H](CCCNC(=N)N)NC(=O)[C@H](CS)NC(=O)[C@H](CCC(N)=O)NC(=O)[C@H](CS)NC(=O)[C@@H](CCCNC(=N)N)NC(=O)[C@@H](CCCNC(=N)N)NC(=O)[C@@H](CCCNC(=N)N)NC(=O)[C@@H](CCCNC(=N)N)NC(=O)[C@@H](CCCNC(=N)N)NC(=O)[C@@H](CCCNC(=N)N)NC(=O)[C@@H](CCCNC(=N)N)NC(=O)[C@@H](CCCNC(=N)N)NC(=O)[C@H](N)CCCNC(=N)N)C(=O)N[C@@H](Cc1ccccc1)C(=O)N1CCC[C@H]1C(=O)O` [MUC1/CQC] (H-[dR][dR][dR][dR][dR][dR][dR][dR][dR]CQCRRKNYGQLDIFP-OH; N-terminus and C-terminus assumed), for which, in the assay with ZR-75-1 cells, the “sub-G1 DNA content (apoptosis)” value was “little if any accumulation of cells with sub-G1 DNA content” and the induction of necrosis result is recorded as “induction of necrosis”. Also, the cell cycle distribution result in the assay on ZR-75-1 cells (72 h) is given as “substantial arrest in S phase”. For the same compound, in the assay on ZR-75-1 cells (96 h), the S phase population entry was “S phase population was decreased”. Moreover, in assay [1], the “interaction between Flag-MUC1-CD and GFP-MUC1-CD” value was “disruption of the interaction”.
With “MUC1/AQA: control peptide in which the CQC motif was altered to AQA, with poly-dArg transduction domain; SEQ ID NO: 60 ([dR][dR][dR][dR][dR][dR][dR][dR][dR]AQARRKNYGQLDIFP) [reference compound]”, the induction of necrosis entry in the assay on ZR-75-1 cells is on record as “not”. In addition, the “interaction between Flag-MUC1-CD and GFP-MUC1-CD” value in assay [1] is given as “no apparent effect”.
